biological target: T1, human NOX4 (Homo sapiens, UniProt Q9NPH5); test: Amplex Red activity assay (cellular H2O2 formation in hNOX4 T-REx-293 cells); type: cell-based; settings: tet-induced 24 h, extracellular H2O2 by Amplex Red, 60 min 25° C., geometric mean if determined several times
T1 construct: The full-length human NOX4 (NM_016931.3) transcript was cloned; expressed in transfected cells
T1 sequence (Q9NPH5 1-578): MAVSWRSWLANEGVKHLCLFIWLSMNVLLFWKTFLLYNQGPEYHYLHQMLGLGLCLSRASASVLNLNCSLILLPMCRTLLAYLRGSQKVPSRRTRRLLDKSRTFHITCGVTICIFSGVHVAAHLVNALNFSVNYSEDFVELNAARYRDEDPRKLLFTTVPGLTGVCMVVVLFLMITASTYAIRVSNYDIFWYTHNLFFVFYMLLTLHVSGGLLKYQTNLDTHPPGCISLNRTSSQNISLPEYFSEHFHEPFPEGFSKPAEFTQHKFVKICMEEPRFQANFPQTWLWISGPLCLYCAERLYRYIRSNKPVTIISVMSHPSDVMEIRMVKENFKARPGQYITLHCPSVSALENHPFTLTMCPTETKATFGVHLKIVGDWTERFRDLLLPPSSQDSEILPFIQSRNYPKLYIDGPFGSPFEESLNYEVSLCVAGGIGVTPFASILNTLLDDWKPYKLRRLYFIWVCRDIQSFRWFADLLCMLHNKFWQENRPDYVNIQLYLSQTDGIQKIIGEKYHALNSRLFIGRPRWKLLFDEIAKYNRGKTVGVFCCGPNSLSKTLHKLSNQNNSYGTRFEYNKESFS
T1 sequence (P13498 1-195 partner): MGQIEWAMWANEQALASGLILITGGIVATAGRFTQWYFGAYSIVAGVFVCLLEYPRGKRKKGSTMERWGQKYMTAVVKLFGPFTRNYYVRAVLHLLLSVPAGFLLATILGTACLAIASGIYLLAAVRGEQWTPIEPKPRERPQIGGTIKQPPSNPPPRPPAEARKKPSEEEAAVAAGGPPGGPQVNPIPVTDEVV
In short: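 Tet-induced (1 μg/mL, 24 h) HEK293 T-REx cells stably expressing full-length human NOX4, 20 000 cells/well, exposed to compounds (10 concentrations, 50 μM to 100 nM; 1.25% DMSO) for 60 min at 25°C. Extracellular H2O2 detected by Amplex Red resorufin fluorescence (ex 550/em 600 nm) versus vehicle; IC50 calculated.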

IC50 [µM]	Compound
2.44	CN1CCOc2ccc(C(=O)Nc3ccc4oc(N5CCC56CCOC6)nc4c3)cc21 (stereo not shown) [Example 181, 4-Methyl-3,4-dihydro-2H-benzo[1,4]oxazine-6-carboxylic acid [2-(6-oxa-1-aza-spiro[3.4]oct-1-yl)-benzooxazol-5-yl]-amide]
3.39	CN1CCOc2ccc(C(=O)Nc3ccc4oc(N5CCC56CCOCC6)nc4c3)cc21 [Example 182, 4-Methyl-3,4-dihydro-2H-benzo[1,4]oxazine-6-carboxylic acid [2-(7-oxa-1-aza-spiro[3.5]non-1-yl)-benzooxazol-5-yl]-amide]
8.7	CN1CCOc2ccc(C(=O)Nc3ccc4oc(N5CCCC5)nc4c3)cc21 [Example 183, 4-Methyl-3,4-dihydro-2H-benzo[1,4]oxazine-6-carboxylic acid (2-pyrrolidin-1-yl-benzooxazol-5-yl)-amide]
1.89	CN1CCOc2ccc(C(=O)Nc3ccc4oc(N5CCCC56COC6)nc4c3)cc21 [Example 184, 4-Methyl-3,4-dihydro-2H-benzo[1,4]oxazine-6-carboxylic acid [2-(2-oxa-5-aza-spiro[3.4]oct-5-yl)-benzooxazol-5-yl]-amide]
3.86	CN1CCOc2ccc(C(=O)Nc3ccc4oc(N5CCCCC5)nc4c3)cc21 [Example 185, 4-Methyl-3,4-dihydro-2H-benzo[1,4]oxazine-6-carboxylic acid (2-piperidin-1-yl-benzooxazol-5-yl)-amide]
3.45	CN1CCOc2ccc(C(=O)Nc3ccc4oc(N5CCC(O)CC5)nc4c3)cc21 [Example 186, 4-Methyl-3,4-dihydro-2H-benzo[1,4]oxazine-6-carboxylic acid [2-(4-hydroxy-piperidin-1-yl)-benzooxazol-5-yl]-amide]
3.39	CN1CCOc2ccc(C(=O)Nc3ccc4oc(N5CCC(F)(F)CC5)nc4c3)cc21 [Example 187, 4-Methyl-3,4-dihydro-2H-benzo[1,4]oxazine-6-carboxylic acid [2-(4,4-difluoro-piperidin-1-yl)-benzooxazol-5-yl]-amide]
3.64	CN1CCOc2ccc(C(=O)Nc3ccc4oc(N5CCCC(F)(F)C5)nc4c3)cc21 [Example 188, 4-Methyl-3,4-dihydro-2H-benzo[1,4]oxazine-6-carboxylic acid [2-(3,3-difluoro-piperidin-1-yl)-benzooxazol-5-yl]-amide]
2.19	CN1CCOc2ccc(C(=O)Nc3ccc4oc(N5CCCC6(COC6)C5)nc4c3)cc21 [Example 189, 4-Methyl-3,4-dihydro-2H-benzo[1,4]oxazine-6-carboxylic acid [2-(2-oxa-6-aza-spiro[3.5]non-6-yl)-benzooxazol-5-yl]-amide]
3.58	CN1CCOc2ccc(C(=O)Nc3ccc4oc(N5CCC6(CC5)COC6)nc4c3)cc21 [Example 190, 4-Methyl-3,4-dihydro-2H-benzo[1,4]oxazine-6-carboxylic acid [2-(2-oxa-7-aza-spiro[3.5]non-7-yl)-benzooxazol-5-yl]-amide]
4.38	COC1CCN(c2nc3cc(NC(=O)c4ccc5c(c4)N(C)CCO5)ccc3o2)CC1 [Example 191, 4-Methyl-3,4-dihydro-2H-benzo[1,4]oxazine-6-carboxylic acid [2-(4-methoxy-piperidin-1-yl)-benzooxazol-5-yl]-amide]
4.32	CN1CCOc2ccc(C(=O)Nc3ccc4oc(N5CCOCC5)nc4c3)cc21 [Example 192, 4-Methyl-3,4-dihydro-2H-benzo[1,4]oxazine-6-carboxylic acid (2-morpholin-4-yl-benzooxazol-5-yl)-amide]
4.04	CN1CCN(c2nc3cc(NC(=O)c4ccc5c(c4)N(C)CCO5)ccc3o2)CC1 [Example 193, 4-Methyl-3,4-dihydro-2H-benzo[1,4]oxazine-6-carboxylic acid [2-(4-methyl-piperazin-1-yl)-benzooxazol-5-yl]-amide]
3.58	CCN(CC)c1nc2cc(NC(=O)c3ccc4c(c3)N(C)CCO4)ccc2o1 [Example 194, 4-Methyl-3,4-dihydro-2H-benzo[1,4]oxazine-6-carboxylic acid (2-diethylamino-benzooxazol-5-yl)-amide]
4.44	CN1CCOc2ccc(C(=O)Nc3ccc4oc(N(C5CC5)C5COC5)nc4c3)cc21 [Example 195, 4-Methyl-3,4-dihydro-2H-benzo[1,4]oxazine-6-carboxylic acid [2-(cyclopropyl-oxetan-3-yl-amino)-benzooxazol-5-yl]-amide]
2.56	O=C(Nc1ccc2c(c1)CCO2)c1ccc2sc(N3CCCCC3)nc2c1 [Example 196, 2-Piperidin-1-yl-benzothiazole-5-carboxylic acid (2,3-dihydro-benzofuran-5-yl)-amide]

IC50 [µM]	Compound
0.728	O=C(Nc1ccc2c(c1)CCO2)c1ccc2sc(N3CCC34COC4)nc2c1 [Example 197, 2-(6-Oxa-1-aza-spiro[3.3]hept-1-yl)-benzothiazole-5-carboxylic acid (2,3-dihydro-benzofuran-5-yl)-amide]
45.2	O=C(Nc1ccc2c(c1)CCO2)c1ccc2sc(N3CCC(F)(F)CC3)nc2c1 [Example 198, 2-(4,4-Difluoro-piperidin-1-yl)-benzothiazole-5-carboxylic acid (2,3-dihydro-benzofuran-5-yl)-amide]
23.9	O=C(Nc1ccc2c(c1)CCO2)c1ccc2sc(N3CCS(=O)(=O)CC3)nc2c1 [Example 199, 2-(1,1-Dioxo-thiomorpholin-4-yl)-benzothiazole-5-carboxylic acid (2,3-dihydro-benzofuran-5-yl)-amide]
2.75	COC1CCN(c2nc3cc(C(=O)Nc4ccc5c(c4)CCO5)ccc3s2)CC1 [Example 200, 2-(4-Methoxy-piperidin-1-yl)-benzothiazole-5-carboxylic acid (2,3-dihydro-benzofuran-5-yl)-amide]
2.87	CN1CCN(c2nc3cc(C(=O)Nc4ccc5c(c4)CCO5)ccc3s2)CC1 [Example 201, 2-(4-Methyl-piperazin-1-yl)-benzothiazole-5-carboxylic acid (2,3-dihydro-benzofuran-5-yl)-amide]
0.729	O=C(Nc1ccc2c(c1)CCO2)c1ccc2sc(N3CCC34CCOC4)nc2c1 (stereo not shown) [Example 202, 2-(6-Oxa-1-aza-spiro[3.4]oct-1-yl)-benzothiazole-5-carboxylic acid (2,3-dihydro-benzofuran-5-yl)-amide]
1.84	O=C(Nc1ccc2c(c1)OCCO2)c1ccc2sc(N3CCC34COC4)nc2c1 [Example 203, 2-(6-Oxa-1-aza-spiro[3.3]hept-1-yl)-benzothiazole-5-carboxylic acid (2,3-dihydro-benzo[1,4]dioxin-6-yl)-amide]
25.5	O=C(Nc1ccc2c(c1)OCCO2)c1ccc2sc(N3CCC(F)(F)CC3)nc2c1 [Example 204, 2-(4,4-Difluoro-piperidin-1-yl)-benzothiazole-5-carboxylic acid (2,3-dihydro-benzo[1,4]dioxin-6-yl)-amide]
26.8	COC1CCN(c2nc3cc(C(=O)Nc4ccc5c(c4)OCCO5)ccc3s2)CC1 [Example 205, 2-(4-Methoxy-piperidin-1-yl)-benzothiazole-5-carboxylic acid (2,3-dihydro-benzo[1,4]dioxin-6-yl)-amide]
21.2	CN1CCN(c2nc3cc(C(=O)Nc4ccc5c(c4)OCCO5)ccc3s2)CC1 [Example 206, 2-(4-Methyl-piperazin-1-yl)-benzothiazole-5-carboxylic acid (2,3-dihydro-benzo[1,4]dioxin-6-yl)-amide]
12.8	O=C(Nc1ccc2c(c1)OCCO2)c1ccc2sc(N3CCCCC3)nc2c1 [Example 207, 2-Piperidin-1-yl-benzothiazole-5-carboxylic acid (2,3-dihydro-benzo[1,4]dioxin-6-yl)-amide]
2.71	O=C(Nc1ccc2c(c1)OCCO2)c1ccc2sc(N3CCC34CCOC4)nc2c1 (stereo not shown) [Example 208, 2-(6-Oxa-1-aza-spiro[3.4]oct-1-yl)-benzothiazole-5-carboxylic acid (2,3-dihydro-benzo[1,4]dioxin-6-yl)-amide]
1.5	O=C(Nc1ccc2c(c1)OCO2)c1ccc2sc(N3CCC34COC4)nc2c1 [Example 209, 2-(6-Oxa-1-aza-spiro[3.3]hept-1-yl)-benzothiazole-5-carboxylic acid benzo[1,3]dioxol-5-ylamide]
6.9	COC1CCN(c2nc3cc(C(=O)Nc4ccc5c(c4)OCO5)ccc3s2)CC1 [Example 210, 2-(4-Methoxy-piperidin-1-yl)-benzothiazole-5-carboxylic acid benzo[1,3]dioxol-5-ylamide]
8.9	CN1CCN(c2nc3cc(C(=O)Nc4ccc5c(c4)OCO5)ccc3s2)CC1 [Example 211, 2-(4-Methyl-piperazin-1-yl)-benzothiazole-5-carboxylic acid benzo[1,3]dioxol-5-ylamide]

Reference: patent US11136317B2, “NADPH oxidase 4 inhibitors” (ACTELION PHARMACEUTICALS LTD, priority 2015, dated 2021)
